In publication PMC4806491, “The milk-derived fusion peptide, ACFP, suppresses the growth of primary human ovarian cancer cells by regulating apoptotic gene expression and signaling pathways” (BMC Cancer, 2016):
Values after ≈ are worked out from the molar mass of the structure shown. “Also recorded” adds a separate entry of the source. Read-outs that look alike come from different tables or passages of the source. Positions of bridges follow the written chain, without caps; N, C: chain ends. Residues, ends and D or L forms follow the SMILES beside them.

Columns and labels:
stability in pH 7 water = format: physicochemical; settings: n=3, Figure S2
[1] = test system: primary ovarian cancer cells; assay: Real time PCR of bcl-xl, bax, akt, caspase-3, CDC25C and cyclinB1 mRNA; format: cell-based, human; settings: increasing concentration, 48 h, 2^-ΔΔCt, β-actin reference, 12 patients
Source text: An optimized RT-PCR protocol was employed to analyze the mRNA levels of bcl-xl, bax, akt, caspase-3, CDC25C and cyclinB1. Beta-actin was used as a housekeeping gene. According to primer sequences of bcl-xl, bax, akt, caspase-3, CDC25C, cyclinB1 and β-actin genes retrieved from Primer-Bank, primers were designed with the Primer 5.0 software, which were synthesized by Shanghai Sangon Biological Engineering Technology. These primer sequences are as follows: • bcl-xl forward 5′-[…]-3′, • bcl-xl reverse 5′-[…]-3′; • bax forward 5′-[…]-3′, • bax reverse 5′-[…]-3′; • akt forward 5′-[…]-3′, • akt reverse 5′-[…]-3′; • caspase-3 forward 5′-[…]-3′, • caspase-3 reverse 5′[…]-3′; • CDC25C forward 5′-[…]-3′, • CDC25C reverse 5′-[…]-3′; • cyclinB1 forward 5′-[…]-3′, • cyclinB1 reverse 5′-[…]-3′; • β-actin forward 5′-[…]-3′, • β-actin reverse 5′-[…]-3′.
Primary ovarian cancer cells were harvested after ACFP treatment at different doses and times, respectively. The total RNAs in the primary ovarian cancer cells were extracted according to the Trizol kit manufacturer’s instructions, and the purity and concentration were determined by ultraviolet spectrophotometry. […]
Real time PCR adopts TaKaRa SYBR Green as real time PCR Master Mix in ABI7500 fluorescent real-time PCR instrument. […] Finally, the relative mRNA expression of all samples were calculated using the 2^-ΔΔCt method. […]

[2] = solubility in water and octanol; format: physicochemical
[3] = test system: primary ovarian cancer cells; assay: Western blot of Bcl-xl, Bax, Akt, Caspase-3, CDC25C and CyclinB1 proteins; format: cell-based, human; settings: 48 h
Protocol: Proteins were isolated from primary ovarian cancer cells harvested after ACFP treatment, separated by SDS-PAGE and transferred to PVDF membrane using the standard protocol. After blocking with 5 % (w/v) dry skim milk, membranes were incubated with primary antibodies (mouse monoclonal Bcl-xl, Bax, Akt, Caspase-3, CDC25C, CyclinB1 and β-Actin antibodies, 1:1000 dilution) according to the manufacturer’s instructions and later incubated with a horseradish peroxidase conjugated secondary antibody (goat anti-mouse IgG, 1:8000 dilution). The proteins were detected with the enhanced chemiluminescence (ECL) system followed by exposure to X-ray film. The β-Actin was used as a loading control. Two independent experiments were performed. Digital images were captured by Gel DocTM gel documentation system (Bio-Rad, USA) and intensities were quantified using Quantity-One software version 4.62 (Bio-Rad, USA).

[4] = test system: primary ovarian cancer cells; format: cell-based, human
Protocol: Fresh primary ovarian tumor tissues that were assessed and classified as serous ovarian adenocarcinoma (III-IV grade) according to WHO criteria were collected from 53 ovarian cancer patients who underwent initial debulking surgery at the first affiliated hospital of Anhui Medical University between June 2012 and June 2014. All patients had not received adjuvant therapies, such as chemotherapy or radiotherapy, prior to surgery. For comparison, normal ovarian glandular epithelium cells (NOGECs) were cultured from fresh primary normal ovarian tissues harvested from 7 patients with uterine fibromas, which were confirmed as negative for any neoplastic disease by pathological examination. Prior to tissue deposition, all patients signed written consent forms confirming their donation of tissue for research purposes according to the Declaration of Helsinki. This study was approved by the Anhui Medical University Review Board. Tumor or normal ovarian tissues were cut into small 1.0 mm^3 pieces, rinsed two times in phosphate buffered saline (PBS) and digested with 0.25 % trypsin in a sterile centrifuge tube at 37 °C for 30 min. To obtain a single cell suspension cell, digested tissues were filtered with a 100 μm cell strainer. Cells were collected by centrifugation at 1000 rpm for five minutes, and the cell pellet was re-suspended in Dulbecco’s modified eagle medium (DMEM) supplemented with 10 % fetal bovine serum (FBS). Cells were subsequently cultured in DMEM containing 0.1 mg/L epidermal growth factor (EGF), 0.1 mg/L insulin-like growth factor (IGF) and 0.1 mg/L beta-estradiol with 10 % FBS in 5 % CO2 at 37 °C. Once cells reached 70 to 80 % confluence, cell culture medium was drained from the flask, and cells were digested with 0.25 % collagenase II until approximately 1/3 of the cells fell to the bottom of the dish by eye using a microscope. Due to their initial shedding, most fibroblasts were eliminated by collagenase digestion. The remaining cells were cultured in 5 % CO2 at 37 °C. To determine purity, cells were analyzed using immunofluorescence of cytokeratin 7 (for ovarian cancer cells) or cytokeratin 19 (for normal ovarian epithelium cells).
Primary ovarian cancer cells were seeded into 96-well plates in sextuplicate at a starting density of 5 × 10^3 cells/well and incubated with ACFP at the concentrations: 0 (as control), 5 × 10^−6, 5 × 10^−5, 5 × 10^−4, 5 × 10^−3, 5 × 10^−2, 5 × 10^−1 and 5 g/L for 24, 48 and 72 h, respectively. Cells treated with paclitaxel at 5 × 10^−4 g/L were included in the same plate as a positive control. Cell viability was later measured using the WST-1 (water-soluble tetrazolium 1) cell viability and cytotoxicity assay kit (Beyotime, Haimen, China) according to the manufacturer’s instructions. The percent viability of cells was calculated using the formula to calculate the cell viability ratio (VR): VR (%) = (the experimental group A450nm value/control group A450nm value) × 100 %. To assess general toxicity of ACFP, viability of normal ovarian cells treated with ACFP was assayed using the same procedure. The effect of ACFP was compared with LfcinB and PGPIPN (the products of Shanghai Sangon Biological Engineering Technology, China). Each experiment was performed in two independent sets.

CC[C@H](C)[C@@H]1NC(=O)[C@H](CO)NC(=O)[C@@H]2CCCN2C(=O)[C@H](C)NC(=O)CNC(=O)[C@H](CC(C)C)NC(=O)[C@H](CCCCN)NC(=O)[C@H](CCCCN)NC(=O)[C@H](CCSC)NC(=O)[C@H](CCCNC(=N)N)NC(=O)[C@H](Cc2c[nH]c3ccccc23)NC(=O)[C@H](CCC(N)=O)NC(=O)[C@H](Cc2c[nH]c3ccccc23)NC(=O)[C@H](CCCNC(=N)N)NC(=O)[C@H](CCCNC(=N)N)NC(=O)[C@@H](NC(=O)[C@H](CCCCN)NC(=O)[C@@H](N)Cc2ccccc2)CSSC[C@@H](C(=O)N[C@H](C(=O)N[C@@H](CCCNC(=N)N)C(=O)N[C@@H](CCCNC(=N)N)C(=O)N[C@@H](C)C(=O)N[C@@H](Cc2ccccc2)C(=O)NCC(=O)NCC(=O)NCC(=O)NCC(=O)N[C@@H](CO)C(=O)N2CCC[C@H]2C(=O)NCC(=O)N2CCC[C@H]2C(=O)N[C@H](C(=O)N2CCC[C@H]2C(=O)N[C@@H](CC(N)=O)C(=O)O)[C@@H](C)CC)C(C)C)NC(=O)[C@H]([C@@H](C)O)NC1=O [ACFP] (H-FKCRRWQWRMKKLGAPSITCVRRAFGGGGSPGPIPN-OH; disulfide 3-20; N-terminus and C-terminus assumed)
stability (stability in pH 7 water): very stable; also recorded: good stability
mRNA expression of bax and caspase-3 [1]: gradual increase
mRNA expression of bcl-xl, akt, CDC25C and cyclinB1 [1]: gradually decreased
solubility in fat (octanol) [2]: slightly soluble
solubility in water [2]: easily dissolve
protein levels of Bax and Caspase-3 ([3]; different concentrations, compared to control-treated group): elevated
protein levels of Bcl-xl, Akt, CDC25C and CyclinB1 ([3]; increasing drug concentration): gradually decreased
IC50, cell viability ([4]; 24 h): 11.5 µg/mL (≈ 2.86 µM)
IC50, cell viability ([4]; 48 h): 1.63 µg/mL (≈ 0.406 µM)
IC50, cell viability ([4]; 72 h): 0.388 µg/mL (≈ 0.0966 µM)
growth of human primary ovarian cells ([4]; different concentrations, 48 h, in vitro, n=12, Figure S1): decreased growth
